Patent EP1079840B1, “SYNERGISTIC COMPOSITION OF INULIN AND AN ANTI-CANCER DRUG FOR USE IN THE TREATMENT OF CANCER” (Tiense Suikerraffinaderij N.V. (Raffinerie Tirlemontoise …, priority 1998, dated 1999)

Test system: ascitic form of a transplantable mouse liver tumor (TLT)
Assay: Survival (increase of life span) of mice bearing the intraperitoneally transplanted ascitic TLT tumor
Assay type: in vivo, NMRI male mice
Settings: for therapeutic effect (character of chemotherapy potentiating effect): cytotoxic drug combined with dietary FOS or inulin
Excerpt: Viable, neoplastic cells (10^6) from the ascitic form of a transplantable mouse liver tumor (TLT) (Taper, 1966 and Cappucino, 1966) were intraperitoneally transplanted into 12 per group young adult NMRI male mice weighing about 30 g, supplied by "Animalerie Facultaire", UCL, Brussels. Mice of the experimental groups were fed with a basal diet supplemented with 15 % FOS or inulin starting 7 days before tumor transplantation up to the end of the experiment. Control animals received the basal diet for experimental animals AO4 furnished by UAR, Villemoisson sur Orge, France, and water ad libitum.
A single, subtherapeutic dose of cytotoxic drugs was intraperitoneally injected 48 hours after intraperitoneal TLT tumor transplantation at following doses: endoxan 80 mg/kg; adriamycin 0.1 mg/kg; oncovin 0.5 mg/kg and 5-fluorouracil 40 mg/kg.
The criteria for the evaluation of results were the mortality rates expressed by mean survival time (MST) and the percentage of increase of life span (ILS) in experimental groups compared with the controls, calculated according to the NCI instructions (Geron et al., 1972). The results of each experiment were confirmed by another experiment performed at another time and were cumulatively calculated (as presented in Table 1). The results concerning the survival rates of mice bearing the ascitic form of a TLT tumor, observed in 2 separately performed experiments on each type of anti-cancer drug (12 mice per group), are cumulatively presented in Table 1 below.
In a further experiment, carried out in a similar manner as the previous experiment, the effects were examined of a composition according to the invention, containing a combination of the anti-metabolite anti-cancer drug methotrexate and inulin or FOS, in comparison with the effects of the single components. The effects were evaluated via the survival criteria of N.M.RI mice bearing ascitic TLT tumors, treated with a single i.p. dose of 20 mg/kg methotrexate (10 investigated mice in each group) and the results are presented in Table 2 below.

[1] = increase of life span vs own untreated control group, 15 % FOS or inulin in diet from 7 days before transplantation, single i.p. dose 48 hours after transplantation: endoxan 80 mg/kg, adriamycin 0.1 mg/kg, oncovin 0.5 mg/kg, 5-fluorouracil 40 mg/kg, 2 experiments cumulated

Q: What does the source list for `O=c1[nH]cc(F)c(=O)[nH]1` [5-Fluorouracil, 5-fluorouracil]?
A: therapeutic effect (character of chemotherapy potentiating effect): synergistic; ILS (%) [1]: 18.75%

Q: What does the source list for `COc1cccc2c1C(=O)c1c(O)c3c(c(O)c1C2=O)C[C@@](O)(C(=O)CO)C[C@@H]3O[C@H]1C[C@H](N)[C@H](O)[C@H](C)O1` [Adriamycin, adriamycin]?
A: therapeutic effect (character of chemotherapy potentiating effect): additive; ILS (%) [1]: 14.7%

Q: Which results are given for `O=P1(N(CCCl)CCCl)NCCCO1` (stereo not drawn) [Endoxan, cyclophosphamide]?
A: therapeutic effect (character of chemotherapy potentiating effect): additive; ILS (%) [1]: 0%

Q: `CC[C@]1(O)C[C@H]2CN(CCc3c([nH]c4ccccc34)[C@@](C(=O)OC)(c3cc4c(cc3OC)N(C=O)[C@H]3[C@@](O)(C(=O)OC)[C@H](OC(C)=O)[C@]5(CC)C=CCN6CC[C@]43[C@@H]65)C2)C1` [Oncovin, vincristine sulphate] was tested. Which “therapeutic effect (character of chemotherapy potentiating effect)” value did it give?
A: Its value is “additive”.

Q: And the “ILS (%)” value [1]?
A: Its value is 33.33%.

Q: Which “ILS (%)” value (Table 2, methotrexate single i.p. dose of 20 mg/kg, dietary FOS or inulin, 10 mice in each group) does the source give for `CN(Cc1cnc2nc(N)nc(N)c2n1)c1ccc(C(=O)N[C@@H](CCC(=O)O)C(=O)O)cc1` [methotrexate] here?
A: The value was 2%.
